What was measured:
Surinam grass = assay: Test B pre-/postemergence herbicide test; type: in vivo, Urochloa decumbens; conditions: for Surinam Grass plant response rating: postemergence
Outline: (§1)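 Greenhouse pot assay with simultaneous preemergence (treated seed) and postemergence (2–18 cm seedlings) applications of surfactant-containing, non-phytotoxic solvent formulations. Response scored visually 13–15 days later on a 0–100 scale, 100 meaning complete control.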

ducksalad = assay: Test B flooded paddy test; type: in vivo, Heteranthera limosa; conditions: 1000 g ai/ha, scale 0 to 100 (0 no effect, 100 complete control)
Outline: (§2)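 Scale 0–100: zero equals no visible effect, 100 complete control, judged by eye relative to controls. Timing: 13 to 15 days in greenhouse post-treatment. Growth stage at spraying: two leaves (paddy) or one to four leaves, 2–18 cm (postemergence).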

[1] = tested on: small flower umbrella sedge; assay: Test B flooded paddy test; type: in vivo, Cyperus difformis; conditions: 1000 g ai/ha, scale 0 to 100 (0 no effect, 100 complete control)
Outline: as §2

lambsquarters = assay: Test B pre-/postemergence herbicide test; type: in vivo, Chenopodium album; conditions: for Lambsquarters plant response rating: postemergence
Outline: as §1

velvetleaf = assay: Test B pre-/postemergence herbicide test; type: in vivo, Abutilon theophrasti; conditions: for Velvetleaf plant response rating: postemergence
Outline: as §1

wheat = assay: Test B postemergence herbicide test; type: in vivo, Triticum aestivum; set-up: key to Wheat plant response rating: 0 = no effect, 100 = complete control; conditions: postemergence
Outline: (§3)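 Greenhouse test; postemergence application to plants at 1–4 leaves (2–18 cm); paddy species at 2 leaves; evaluated visually vs controls at 13–15 days; scale 0–100 (100 = complete control).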

large crabgrass = assay: Test B pre-/postemergence herbicide test; type: in vivo, Digitaria sanguinalis; conditions: for Crabgrass, Large plant response rating: postemergence
Outline: as §1

morningglory = assay: Test B pre-/postemergence herbicide test; type: in vivo, Ipomoea coccinea; conditions: for Morningglory plant response rating: postemergence
Outline: (§4)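 Formulation: non-phytotoxic solvent mix with surfactant. Timing: preemergence on seed and postemergence on 2–18 cm plants, applied concurrently. Readout after 13–15 d greenhouse: visual 0–100 control rating against controls.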

barnyardgrass [2] = assay: Test B pre-/postemergence herbicide test; type: in vivo, Echinochloa crus-galli; conditions: for Barnyardgrass plant response rating: postemergence
Outline: as §4

cocklebur = assay: Test B pre-/postemergence herbicide test; type: in vivo, Xanthium strumarium; conditions: for Cocklebur plant response rating: postemergence
Outline: as §4

barnyardgrass [3] = assay: Test B flooded paddy test; type: in vivo, Echinochloa crus-galli; conditions: 1000 g ai/ha, scale 0 to 100 (0 no effect, 100 complete control)
Outline: as §2

rice = assay: Test B flooded paddy test; type: in vivo, Oryza sativa; conditions: 1000 g ai/ha, scale 0 to 100 (0 no effect, 100 complete control)
Outline: as §3

corn = assay: Test B pre-/postemergence herbicide test; type: in vivo, Zea mays; conditions: for Corn plant response rating: postemergence
Outline: as §1

giant foxtail = assay: Test B pre-/postemergence herbicide test; type: in vivo, Setaria faberi; conditions: for Foxtail, Giant plant response rating: postemergence
Outline: as §1

blackgrass = assay: Test B postemergence herbicide test; type: in vivo, Alopecurus myosuroides; conditions: postemergence
Outline: as §2

[4] = 125 g ai/ha, 0 = no effect, 100 = complete control, preemergence
[5] = 125 g ai/ha, visual rating, scale 0 (no effect) to 100 (complete control)
[6] = 500 g ai/ha, visual rating, 0 = no effect, 100 = complete control, preemergence
[7] = 500 g ai/ha, scale 0 to 100, 0 is no effect, 100 is complete control
[8] = 125 g ai/ha, 0 is no effect, 100 is complete control, preemergence

Which “Surinam Grass plant response rating (0 to 100 scale)” value (Surinam grass; [4]) does the source give for `CCN1N=C(C(C)(C)C)CC1C(=O)Nc1cc(C(=O)N2CCCC2)ccc1F` (racemic) [Compound 309] here?
Its value is 60.

What about the “Surinam Grass plant response rating” value (Surinam grass; [5]) of the same compound?
Its value is 10.

What about the “Plant response rating, Surinam Grass” value (Surinam grass; [6]) of the same compound?
Its value is 100.

And the “Surinam Grass plant response rating” value (Surinam grass; [7])?
Its value is 40.

And the “Ducksalad plant response rating” value (ducksalad)?
Its value is 90.

What about the “Sedge, Umbrella plant response rating” value [1] of the same compound?
The value was 80.

And the “Lambsquarters plant response rating (0 to 100 scale)” value (lambsquarters; [4])?
The value was 90.

And the “Lambsquarters plant response rating” value (lambsquarters; [5])?
Its value is 40.

And the “Plant response rating, Lambsquarters” value (lambsquarters; [6])?
Its value is 90.

And the “Lambsquarters plant response rating” value (lambsquarters; [7])?
The value was 80.

And the “Velvetleaf plant response rating” value (velvetleaf; [5])?
Its value is 20.

And the “Plant response rating, Velvetleaf” value (velvetleaf; [6])?
Its value is 100.

And the “Velvetleaf plant response rating” value (velvetleaf; [7])?
Its value is 40.

What about the “Wheat plant response rating” value (wheat; [5]) of the same compound?
Its value is 20.

What about the “Wheat plant response rating” value (wheat; [7]) of the same compound?
Its value is 30.

And the “Crabgrass, Large plant response rating (0 to 100 scale)” value (large crabgrass; [4])?
Its value is 60.

What about the “Crabgrass, Large plant response rating” value (large crabgrass; [5]) of the same compound?
Its value is 0.

What about the “Plant response rating, Crabgrass, Large” value (large crabgrass; [6]) of the same compound?
Its value is 100.

What about the “Crabgrass, Large plant response rating” value (large crabgrass; [7]) of the same compound?
Its value is 40.

And the “Morningglory plant response rating (0 to 100 scale)” value (morningglory; [4])?
Its value is 0.

What about the “Morningglory plant response rating” value (morningglory; [5]) of the same compound?
Its value is 0.

What about the “Plant response rating, Morningglory” value (morningglory; [6]) of the same compound?
Its value is 0.

And the “Morningglory plant response rating” value (morningglory; [7])?
The value was 40.

What about the “Barnyardgrass plant response rating (0 to 100 scale)” value (barnyardgrass [2]; [4]) of the same compound?
The value was 80.

And the “Barnyardgrass plant response rating” value (barnyardgrass [2]; [5])?
Its value is 20.

And the “Plant response rating, Barnyardgrass” value (barnyardgrass [2]; [6])?
Its value is 100.

What about the “Barnyardgrass plant response rating” value (barnyardgrass [2]; [7]) of the same compound?
The value was 40.

What about the “Cocklebur plant response rating (0 to 100 scale)” value (cocklebur; [4]) of the same compound?
The value was 30.

What about the “Cocklebur plant response rating” value (cocklebur; [5]) of the same compound?
The value was 40.

And the “Plant response rating, Cocklebur” value (cocklebur; [6])?
The value was 80.

What about the “Cocklebur plant response rating” value (cocklebur; [7]) of the same compound?
The value was 70.

And the “Barnyardgrass plant response rating” value (barnyardgrass [3])?
The value was 90.

What about the “Rice plant response rating” value (rice) of the same compound?
Its value is 80.

And the “Corn plant response rating (0 to 100 scale)” value (corn; [4])?
Its value is 60.

And the “Corn plant response rating” value (corn; [5])?
The value was 20.

And the “Plant response rating, Corn” value (corn; [6])?
The value was 90.

And the “Corn plant response rating” value (corn; [7])?
The value was 60.

And the “Foxtail, Giant plant response rating (0 to 100 scale)” value (giant foxtail; [4])?
The value was 80.

What about the “Foxtail, Giant plant response rating” value (giant foxtail; [5]) of the same compound?
The value was 20.

And the “Plant response rating, Foxtail, Giant” value (giant foxtail; [6])?
Its value is 100.

And the “Foxtail, Giant plant response rating” value (giant foxtail; [7])?
Its value is 40.

And the “Blackgrass plant response rating” value (blackgrass; [5])?
The value was 10.

What about the “Blackgrass plant response rating” value (blackgrass; [7]) of the same compound?
The value was 30.

Which results are given for `CCC1=NN(C(C)(C)C)CC1C(=O)Nc1cc(C(=O)N2CC=CC2)ccc1F` (racemic) [Compound 340]?
Plant response rating (0 to 100 scale), Surinam Grass (Surinam grass; [8]): 80; Surinam Grass plant response rating (Surinam grass; [5]): 10; Plant response rating, Surinam Grass (Surinam grass; [6]): 100; Surinam Grass plant response rating (Surinam grass; [7]): 20; Ducksalad plant response rating (ducksalad): 90; Sedge, Umbrella plant response rating [1]: 80; Plant response rating (0 to 100 scale), Lambsquarters (lambsquarters; [8]): 90; Lambsquarters plant response rating (lambsquarters; [5]): 30; Plant response rating, Lambsquarters (lambsquarters; [6]): 100; Lambsquarters plant response rating (lambsquarters; [7]): 70; Plant response rating (0 to 100 scale), Velvetleaf (velvetleaf; [8]): 70; Velvetleaf plant response rating (velvetleaf; [5]): 20; Velvetleaf plant response rating (velvetleaf; [7]): 40; Wheat plant response rating (wheat; [5]): 0; Wheat plant response rating (wheat; [7]): 10; Plant response rating (0 to 100 scale), Crabgrass, Large (large crabgrass; [8]): 80; Crabgrass, Large plant response rating (large crabgrass; [5]): 10; Plant response rating, Crabgrass, Large (large crabgrass; [6]): 100; Crabgrass, Large plant response rating (large crabgrass; [7]): 20; Plant response rating (0 to 100 scale), Morningglory (morningglory; [8]): 30; Morningglory plant response rating (morningglory; [5]): 10; Morningglory plant response rating (morningglory; [7]): 40; Plant response rating (0 to 100 scale), Barnyardgrass (barnyardgrass [2]; [8]): 80; Barnyardgrass plant response rating (barnyardgrass [2]; [5]): 10; Plant response rating, Barnyardgrass (barnyardgrass [2]; [6]): 100; Barnyardgrass plant response rating (barnyardgrass [2]; [7]): 20; Plant response rating (0 to 100 scale), Cocklebur (cocklebur; [8]): 20; Cocklebur plant response rating (cocklebur; [5]): 0; Plant response rating, Cocklebur (cocklebur; [6]): 50; Cocklebur plant response rating (cocklebur; [7]): 20; Barnyardgrass plant response rating (barnyardgrass [3]): 90; Rice plant response rating (rice): 80; Corn plant response rating (corn; [5]): 0; Corn plant response rating (corn; [7]): 20; Plant response rating (0 to 100 scale), Foxtail, Giant (giant foxtail; [8]): 60; Foxtail, Giant plant response rating (giant foxtail; [5]): 20; Plant response rating, Foxtail, Giant (giant foxtail; [6]): 100; Foxtail, Giant plant response rating (giant foxtail; [7]): 40; Blackgrass plant response rating (blackgrass; [5]): 20; Blackgrass plant response rating (blackgrass; [7]): 30

— patent US20060069132A1, “Azolecarboxamide herbicides” (priority 2004, published 2006)
